Measured values taken from patent publication US7049334B2, “Enhancement of learning and memory and treatment of amnesia” (priority 2001, dated 2006).

Tests used:
[1] = tested on: Schaffer collateral-CA1 pathway of rat hippocampal slices; assay: LTP induction in Schaffer collateral-CA1 pathway of hippocampal slices (fEPSP slope); assay type: cell-based, Wistar rats; details: for fEPSP slope: 1.6 μM perfused 6 min (3 min before and 3 min after tetanus)
rats (active avoidance) = assay: Active avoidance task; assay type: in vivo
Experimental: For the test of active avoidance, the rat was placed in the dark compartment, facing the door. The door was opened halfway, and the rat had 10 sec to shuttle over the door to lit compartment. Rat was not chosen for this experiment if the rat crossed to the safe side within 10 sec. Foot-shock was turned on at 10 s later. Rat escaped into safe compartment and the door was closed. The retention time on dark shock compartment was measured 48 hr later. The rats were discarded once the rats enter lit compartment within 10 s on the day of context training. Foot-shock was administered 10 s after putting in the dark compartment on day-1. Memory retention was tested on day-2.

[2] = tested on: hippocampal slices taken from young rats; assay: Plasticity induced by low-frequency stimulation (LTD) in hippocampal slices; assay type: cell-based, Wistar rats
Experimental: After decapitation, brains of either adult ([…], for the induction of long-term potentiation) or young (2–3 weeks old, for the induction of long-term depression) Wistar rats were rapidly removed, and the hippocampus was dissected out. Transverse hippocampal slices (450 μm thickness) were immediately placed in an ice-cold cutting buffer containing 124 mM NaCl, 3 mM KCl, 1.0 mM Na2HPO4, 25 mM NaHCO3, 0.5 mM CaCl2, 5.0 mM MgSO4, 10 mM glucose, saturated with 95% O2 and 5% CO2. The slices were then maintained in an interface chamber at room temperature, and perfused at flow rate of 1–2 mL/min with artificial cerebrospinal fluid (ACSF). The composition of ACSF contained 124 mM NaCl, 4.4 mM KCl, 1.0 mM Na2HPO4, 25 mM NaHCO3, 2.0 mM or 2.5 mM CaCl2, 1.0 mM MgSO4, 10 mM glucose, gassed with 95% O2 and 5% CO2. The field Excitatory Postsynaptic Potentials (fEPSP) was evoked by test pulses through a bipolar stimulating electrode placed on the Schaffer collateral/commissural pathway, and recorded from the stratum radiatum of CA1 using a glass micropipette electrode (5–10 MΩ) filled with 2 M NaCl. The test pulse duration was 100 μsec, and test responses were elicited at 0.02 Hz. To record field potentials in the cortico-amygdala pathway, a stimulating electrode was placed in the external capsule, which contained fibers from the auditory cortex to the lateral amygdala. Bicuculine (10 μM) was present in the perfusion solution when the fEPSPs of amygdala were recorded. To increase the effectiveness of fused pyrazolyl compounds that were applied through the perfusion system, the ACSF level in the recording chamber was sufficiently high to cover the hippocampal slices but not to float them. All fused pyrazolyl compounds were perfused in ACSF.
Evoked fEPSPs were recorded and data were analyzed. The initial slope of the fEPSPs was calculated, and the data were expressed as percentages of the average of the base-line slope of the fEPSPs.
Compound 1 on plasticity induced by low-frequency stimulation (LFS): LFS (900 pulses at 1 Hz) was delivered to hippocampal slices taken from young rats ([…]) to induce long-term depression (LTD). Stimulation of hippocampal slices at 1 Hz for 3 min produced no LTD of synaptic transmission. However, this short-duration LFS induced significant LTD in the presence of Compound 1 (83.4±10.9%, n=3). […] A weaker electrical stimulation at 0.02 Hz was delivered in the presence of both nitric oxide donor nitroprusside ([…]) and Compound 1 (1.6 μM). Simultaneous perfusion of the nitric oxide donor nitroprusside (30 μM) and Compound 1 (1.6 μM) induced LTD.

[3] = injection 10 min before foot-shock

## OCc1ccc(-c2nn(Cc3ccccc3)c3ccccc23)o1 [Compound 1, 1-benzyl-3-(5′-hydroxymethyl-2′-furyl)-indazole]
[1]; 1.6 μM added to ACSF 10 min after 2 trains of strong tetanus (100 Hz/1 sec)
  LTP when compound added after tetanus: not further potentiated
[1]; AP-5 and MCGP applied simultaneously with Compound 1
  fEPSP slope, simultaneous application of AP-5 and MCPG: 111.5±12.3%
[1]; L-NAME 300 μM (nitric oxide synthase inhibitor)
  LTP induced by Compound 1, concomitant perfusion with L-NAME: significantly attenuated
[1]; Zinc protoporphyrin 1 μM (heme oxygenase inhibitor)
  LTP induced by Compound 1, with Zinc protoporphyrin: did not affect
[1]; fEPSP slope 60 min after weak tetanus (50 Hz, 0.5 s), 1.6 μM perfused 3 min before and 3 min after tetanus
  fEPSP: 172.9%
[1]; strong tetanus (two 100 Hz, 1 sec trains 20 sec apart), at 50 min after tetanus, % of base-line slope
  fEPSP slope: 404.7±34.9%
[1]; weak tetanus (20 Hz, 0.5 sec train), at 1 hr
  fEPSP slope: 172.9±10.7%
[1]; weak tetanus (50 Hz/0.5 s), with AP5 100 μM (NMDA receptor antagonist)
  fEPSP slope, co-perfused with AP5: 142.1±13.5%
[1]; weak tetanus (50 Hz/0.5 s), with KT 5823 2 μM (protein kinase G inhibitor)
  fEPSP slope, co-perfused with KT5823: 112.9±5.4%
[1]; weak tetanus (50 Hz/0.5 s), with ODQ 5 μM (soluble guanylyl cyclase inhibitor)
  fEPSP slope, co-perfused with ODQ: 107.8±3.9%
[1]; with MCPG 100 μM
  LTP induced by Compound 1, co-perfused with MCPG: reduced
Rats (active avoidance); KT5823 i.c.v. 0.2 nmole
  memory enhancement effect induced by Compound 1, with KT5823: effectively inhibited
Rats (active avoidance); L-NAME i.c.v. 1 mmole
  memory enhancement effect induced by Compound 1, with L-NAME: effectively inhibited
Rats (active avoidance); [3]
  escape latency from the shock- to the safe-compartment: decrease
  retention of memory: noticeable increase
[2]; 1.6 μM perfused for 15 min during LFS (900 pulses at 1 Hz)
  plasticity with perfusion during LFS: reversed the LTD plasticity into LTP
[2]; 0.02 Hz stimulation, alone
  potentiation of fEPSP at 0.02 Hz stimulation, substance alone: produced no potentiation
[2]; 0.02 Hz stimulation, simultaneous perfusion of nitroprusside (30 μM) and Compound 1 (1.6 μM)
  plasticity at 0.02 Hz with nitric oxide donor nitroprusside: induced LTD
[2]; 1 Hz for 3 min, in the presence of Compound 1, young rats
  fEPSP (LTD) after short-duration LFS: 83.4±10.9%
